From PMC10824102, “Identification of small molecule inhibitors of G3BP-driven stress granule formation” (The Journal of Cell Biology, 2024)

Tested on: preformed stress granules in human iPSC-derived cortical neurons
Test: Dissolution of preformed stress granules in iPSC-derived cortical neurons
Assay type: cell-based
Details: 50 μM added after 30 min of 500 μM NaAsO2
Procedure: i3N iPSC clones were gifts from Michael E. Ward (National Institutes of Health, Bethesda, MD, USA) and were used to generate a G3BP1-mNeongreen knock-in iPSC line. iPS neurons were differentiated with a two-step protocol (predifferentiation and maturation) as previously described ([Wang et al., 2017]). For predifferentiation, iPSCs were incubated with 1 µg/ml doxycycline hyclate (Sigma-Aldrich) for 3 days at a density of 1.2 × 10^6 cells/well in six-well dishes coated with Matrigel in knockout DMEM (KO-DMEM)/F12 medium (Thermo Fisher Scientific) containing N2 supplement (Thermo Fisher Scientific), non-essential amino acids (NEAA; Thermo Fisher Scientific), GlutaMAX Supplement (Thermo Fisher Scientific), and Y-27632 ([…] Technologies). The medium was changed daily and Y-27632 was removed from day 2. For maturation, predifferentiated precursor cells were dissociated, counted, and subplated at 25 × 10^4 cells/ml on dishes coated with 50 μg/ml poly-L-ornithine in BrainPhys neuronal medium ([…] Technologies) containing N2 (Thermo Fisher Scientific), B-27, 20 ng/ml BDNF (PeproTech), 20 ng/ml GDNF (PeproTech), 500 µg/ml dibutyryl cyclic-AMP (Sigma-Aldrich), 200 nM L-ascorbic acid (Sigma-Aldrich), 1 µg/ml natural mouse laminin (Thermo Fisher Scientific), 1 μM Ara-C (Sigma-Aldrich), and 1 µg/ml doxycycline hyclate. Half-medium was changed every other day. […]

Compound: CC(NC(=O)C(NC(=O)C(NC(=O)CCC(C)(C)C)C(C)(C)O)C(C)c1ccccc1)C(=O)N1CCCC1c1ccccc1 (stereo not shown) [G3Ib]
- dissolution of preformed stress granules: nearly instantaneously dissolved stress granules
